Experimental data reported in PubChem BioAssay (NCI).
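GI50 is the concentration that inhibits growth by half. TGI: concentration producing complete growth inhibition.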

Key:
Assay in all cases: DTP human tumour cell line panel, 384-well format
[1] = test system: SF-539 CNS
[2] = test system: HCT-15 colon
[3] = test system: RXF 393 renal
[4] = test system: NCI-H322M lung
[5] = test system: PC-3 prostate
[6] = test system: MOLT-4 leukemia
[7] = test system: U251 glioblastoma
[8] = test system: TK-10 renal
[9] = test system: RPMI-8226 leukemia
[10] = test system: SK-OV-3 ovarian
[11] = test system: T-47D breast
[12] = test system: NCI-H522 lung
[13] = test system: OVCAR-4 ovarian
[14] = test system: OVCAR-5 ovarian
[15] = test system: NCI/ADR-RES ovarian
[16] = test system: DU-145 prostate
[17] = test system: SR leukemia
[18] = test system: A549 NSCLC
[19] = test system: HOP-92 NSCLC
[20] = test system: KM12 colon
[21] = test system: MDA-MB-231 breast
[22] = test system: IGROV1 ovarian
[23] = test system: SN12C renal
[24] = test system: OVCAR-3 ovarian
[25] = test system: SNB-75 CNS
[26] = test system: SF-295 CNS
[27] = test system: HL-60(TB) leukemia
[28] = test system: OVCAR-8 ovarian

## O=P(O)(O)C(O)(Cn1ccnc1)P(=O)(O)O
[1]
  GI50: > 100 µM
  TGI: > 100 µM
[2]
  GI50: > 100 µM
  TGI: > 100 µM
[3]
  GI50: > 100 µM
  TGI: > 100 µM
[4]
  GI50: > 100 µM
  TGI: > 100 µM
[5]
  GI50: > 100 µM
  TGI: > 100 µM
[6]
  GI50: > 100 µM
  TGI: > 100 µM
[7]
  GI50: > 100 µM
  TGI: > 100 µM
[8]
  GI50: > 100 µM
  TGI: > 100 µM
[9]
  GI50: > 100 µM
  TGI: > 100 µM
[10]
  GI50: > 100 µM
  TGI: > 100 µM
[11]
  GI50: > 100 µM
  TGI: > 100 µM
[12]
  GI50: > 100 µM
  TGI: > 100 µM
[13]
  GI50: > 100 µM
  TGI: > 100 µM
[14]
  GI50: > 100 µM
  TGI: > 100 µM
[15]
  GI50: > 100 µM
  TGI: > 100 µM
[16]
  GI50: > 100 µM
  TGI: > 100 µM
[17]
  GI50: > 100 µM
  TGI: > 100 µM
[18]
  GI50: > 100 µM
  TGI: > 100 µM
[19]
  GI50: > 100 µM
  TGI: > 100 µM
[20]
  GI50: > 100 µM
  TGI: > 100 µM
[21]
  GI50: > 100 µM
  TGI: > 100 µM
[22]
  GI50: > 100 µM
  TGI: > 100 µM
[23]
  GI50: > 100 µM
  TGI: > 100 µM
[24]
  GI50: > 100 µM
  TGI: > 100 µM
[25]
  GI50: > 100 µM
  TGI: > 100 µM
[26]
  GI50: > 100 µM
  TGI: > 100 µM
[27]
  GI50: > 100 µM
  TGI: > 100 µM
[28]
  GI50: > 100 µM
  TGI: > 100 µM
